Key:
[1] = test system: normal non-senescent REC (Non-SnC REC); experiment: Viability of Non-SnC REC; assay type: cell-based; details: 72 hr incubation; vs ABT263
Experimental: (§1) FIGS. 3A to 3B depicts viability of non-SnC human umbilical vein endothelial cells (HUVEC) and IR-induced SnC HUVEC treated with varying concentrations of ABT263 (FIG. 3A) or 753b (FIG. 3B). FIGS. 3C to 3D depict viability of non-SnC renal epithelial cells (REC), IR-induced SnC REC, and replicative senescent REC treated with varying concentrations of ABT263 (FIG. 3C) or 753b (FIG. 3D).
(§2) The viability of Non-SnC HUVEC, Non-SnC REC, IR-SnC HUVEC, IR-SnC REC, and Rep-SnC REC was measured 72 hr after they were incubated with increasing concentrations of 753b or ABT263 compared to cells/platelets with vehicle.

[2] = test system: IR-induced senescent renal epithelial cells (IR-SnC REC); experiment: Viability of IR-SnC REC; assay type: cell-based; details: 72 hr incubation; vs ABT263
Experimental: as §1, §2

[3] = Body conditions and insulin tolerance test in the STAM model; assay type: in vivo, C57BL6 mice; details: STZ/HFD mice; 5 mg/kg twice a week IP; postnatal day 150
Experimental: FIG. 8A is an image showing body condition of STZ/HFD mice treated with vehicle control or 753b. FIG. 8B depicts blood glucose (mg/dL) levels versus time after intraperitoneal injection of insulin in STZ/HFD mice treated with vehicle control or 753b. Data were means±SD from 5 mice per group. *p<0.05.
Experimental design: C57BL6 mice were injected with Streptozotocin (STZ) at postnatal day 2 to induce diabetes and then fed with HFD from postnatal day 30 till the end of the experiments (FIG. 5). Half of the mice started receiving vehicle and the others receiving 753b (5 mg/kg) treatment on postnatal day 45 twice a week by IP injection till the end of the experiments. A group of the mice were euthanized at postnatal day 90 (or day 45 after the initiation of the treatment) for analysis of senescent cell accumulation and steatosis. Another group of the mice were euthanized at postnatal day 150 (or day 105 after the initiation of the treatment) for analysis of liver fibrosis and cancer.
753b administration improves body conditions and ameliorates the development of insulin resistance in the STAM model. All the analyses were done in mice at postnatal day 150 (p150 or 105 days after treatment).

[4] = target: Bcl-2 (Homo sapiens, UniProt P10415); experiment: Immunoblot of Bcl-2 degradation in WI-38 fibroblast cells (Non-SnCs and IR-SnCs); assay type: cell-based; set-up: degradation of Bcl-xl and Bcl-2 in non-senescent WI-38 fibroblast cells (Non-SnCs) treated with varying concentrations of 753b; endogenous in cells; host or cells: WI-38 fibroblasts (non-senescent and ionizing-radiation-induced senescent); details: different concentrations, 16 h, dose-dependent
Chain of Bcl-2 (P10415 whole entry): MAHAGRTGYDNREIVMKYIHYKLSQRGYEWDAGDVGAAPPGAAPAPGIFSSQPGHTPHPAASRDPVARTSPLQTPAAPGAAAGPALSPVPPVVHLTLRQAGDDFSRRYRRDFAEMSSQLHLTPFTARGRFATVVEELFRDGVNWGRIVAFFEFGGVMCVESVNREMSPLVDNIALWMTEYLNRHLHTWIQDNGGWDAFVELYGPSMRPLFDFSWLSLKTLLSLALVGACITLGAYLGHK
Text: (§3) FIG. 2A depicts immunoblots showing degradation of Bcl-xl and Bcl-2 in non-senescent WI-38 fibroblast cells (Non-SnCs) treated with varying concentrations of 753b. 3-actin was used as a loading control. FIG. 2B depicts viability of Non-SnCs treated with varying concentrations of 753b or ABT263. FIG. 2C depicts immunoblots showing degradation of Bcl-xl and Bcl-2 in ionizing radiation-induced senescent WI-38 fibroblast cells (IR-SnCs) treated with varying concentrations of 753b. 3-actin was used as a loading control. FIG. 2D depicts viability of IR-SnCs treated with varying concentrations of 753b or ABT263. FIG. 2E depicts immunoblots showing degradation of Bcl-xl and Bcl-2 in human platelets treated with varying concentrations of 753b. FIG. 2F depicts viability of human platelets treated with varying concentrations of 753b or ABT263.
(§4) The potency of 753b in degrading Bcl-xl/2 was evaluated by immunoblots after the cells or platelets were treated with different concentrations of 753b for 16 h ([…]). 753b is more cytotoxic to IR-SnCs but less toxic to Non-SnCs and platelets. The viability of Non-SnCs, IR-SnCs and platelets was measured 72 hr (Non-SnCs and IR-SnCs) and 48 hr (platelets) after they were incubated with increasing concentrations of 753b or ABT263 compared to cells/platelets with vehicle.

[5] = test system: ionizing radiation (IR) induced senescent WI-38 fibroblast cells (IR-SnCs); experiment: Viability of IR-induced senescent WI-38 fibroblast cells; assay type: cell-based; details: 72 hr incubation; vs ABT263
Text: as §3, §4

[6] = test system: normal non-senescent HUVEC (Non-SnC HUVEC); experiment: Viability of Non-SnC HUVEC; assay type: cell-based, human; details: 72 hr incubation; vs ABT263
Experimental: as §1, §2

[7] = test system: human platelets; experiment: Viability of human platelets; assay type: cell-based; details: 48 hr incubation; vs ABT263
Text: as §3, §4

In the case of `Cc1ncsc1-c1ccc([C@H](C)NC(=O)[C@@H]2C[C@@H](O)CN2C(=O)[C@@H](NC(=O)CCCCCCC(=O)N2CCN(C[C@]3(C)CCC(c4ccc(Cl)cc4)=C(CN4CCN(c5ccc(C(=O)NS(=O)(=O)c6ccc(N[C@H](CCN7CCOCC7)CSc7ccccc7)c(S(=O)(=O)C(F)(F)F)c6)cc5)CC4)C3)CC2)C(C)(C)C)cc1` [Compound 753b], the “Toxicity (viability) to Non-SnC REC compared with ABT263” value [1] is reported as “less toxic”, the “Senolytic potency (viability) against IR-SnC REC compared with ABT263” value [2] is reported as “more potent senolytic agent” and the “Body conditions (dehydration and dampen hair)” value [3] is reported as “prevented the development of abnormal body conditions”. The “Insulin resistance (intraperitoneal injected insulin tolerance test)” value [3] was “prevented insulin resistance”, the “Bcl-2 degradation in IR-SnCs” value ([4]; IR-induced senescent WI-38 fibroblast cells) was “degrades Bcl-xl and Bcl-2 in Non-SnCs and IR-SnCs” and the “Bcl-2 degradation in Non-SnCs” value ([4]; non-senescent WI-38 fibroblast cells) was “degrades Bcl-xl and Bcl-2 in Non-SnCs and IR-SnCs”. For the same compound, the “Senolytic potency (viability) against IR-SnCs compared with ABT263” value [5] was “more potent senolytic agent”, the “Toxicity (viability) to Non-SnC HUVEC compared with ABT263” value [6] was “less toxic” and the “Toxicity (viability) to human platelets compared with ABT263” value [7] was “less toxic”.

Source: patent publication US20240398764A1, “METHODS OF TREATING DISEASES ASSOCIATED WITH SENESCENT CELL ACCUMULATION” (University of Florida Research Foundation, Incorporated, priority 2021, published 2024)
